Source: patent US20170189391A1, “Protein kinase C inhibitor for treating triple-negative breast cancer” (Macau University of Science ang Technology, priority 2015, published 2017)

Experiments:
all TNBC cell lines = test: Flow-cytometric analysis of cell cycle, all TNBC lines; assay type: cell-based, human; conditions: upon chelerythrine treatment, 24 hours
Procedure: (§1) Four Non-TNBC cell lines and four TNBC cell lines as mentioned above were treated with chelerythrine (CHE, 5 μM) for 24 hours. […] Average values are calculated from three independent experiments (n=3). Data is shown as mean±SD.
(§2) Flow cytometric analyses were performed to define the cell cycle distribution […] after treatment with […] chelerythrine. Cells were harvested, washed twice with PBS, resuspended in 0.5 ml PBS (1,000,000˜2,000,000 cells/ml). Then 4 ml 70% ethanol was added and the mixture was kept at −20° C. for 2 hours to fix the cells. Cells were stained for total DNA content with a solution containing […] propidium iodide, 200 μg/ml DNase-free RNase A, and 0.1% triton X-100 in PBS for 30 minutes at room temperature. Cell cycle distribution was analyzed by flow cytometry (BD Bioscience). The percentages of the total cell population in the four different phases (Sub-G0/G1, G0/G1, S, G2/M) of cell cycle was determined using FlowJo software.

MDA-MB-453 = test: In vitro cell proliferation assay (SRB assay); assay type: cell-based, human; set-up: inhibitory effect at the highest concentration tested: dose or concentration left out as unconfirmed
Procedure: (§3) The anti-proliferative effects of tested agents on breast cancer cell lines were assessed by sulforhodamine B (SRB) colorimetric assay as previously described. Briefly, cells were seeded in 96-well plates in a volume of […] at densities of 5,000˜40,000 cells per well. After overnight incubation at 37° C. in a humidified incubator with 5% CO2, 100 ml medium containing agents (2 X indicated concentrations) were added. After 72-hour treatment, attached cells were fixed with 50 ml cold 50% (w/v) trichloroacetic acid (TCA) for 1 hour at 4° C. and then stained with 100 ml 0.4% (w/v) SRB. The absorbency at 515 nm was measured using SpectraMax 190 microplate reader (Molecular Devices) after solubilizing the protein-bound dye with 200 ml 10 mM Tris base solution (pH 10.5). The IC50 value was defined as the concentration required for a 50% reduction in cell growth.
(§4) To test in vitro anti-proliferative activity of chelerythrine on breast cancer cells, four TNBC cell lines (MDA-MB-231, BT-549, HCC1937 and MDA-MB-468) and four non-TNBC cell lines (MCF7, ZR-75-1, SK-BR-3 and MDA-MB-453) were treated with a series of chelerythrine concentrations ranging from […] for 72 hours. […] On the contrary, the tested non-TNBC cell lines were relatively resistant to chelerythrine treatment on compared with the TNBC cell lines.

ZR-75-1 = test: In vitro cell proliferation assay (SRB assay); assay type: cell-based, human; set-up: inhibitory effect at the highest concentration tested: dose or concentration left out as unconfirmed
Procedure: as §3, §4

[1] = system: TNBC cell lines (MDA-MB-231, BT-549, HCC1937 and MDA-MB-468); test: In vitro cell proliferation assay (SRB assay), four TNBC lines together; assay type: cell-based, human; conditions: for cell growth: 5 mM (so in the source) chelerythrine
Procedure: as §3, with “After 72-hour treatment, attached cells were fixed with 50 ml cold 50% (w/v) trichloroacetic acid (TCA) for 1 hour at 4° C. and then stained with 100 ml 0.4% (w/v) SRB.” left out
as §4

MDA-MB-231 [2] = test: In vitro cell proliferation assay (SRB assay); assay type: cell-based; conditions: Homo sapiens; MDA-MB-231 (TNBC), 72-hour treatment
Procedure: as §3, §4

SK-BR-3 = test: In vitro cell proliferation assay (SRB assay); assay type: cell-based; conditions: Homo sapiens; SK-BR-3 (Non-TNBC), 72-hour treatment
Procedure: as §3, §4

HCC1937 [3] = test: In vitro cell proliferation assay (SRB assay); assay type: cell-based; conditions: Homo sapiens; HCC1937 (TNBC), 72-hour treatment
Procedure: as §3, §4

MDA-MB-468 [4] = test: In vitro cell proliferation assay (SRB assay); assay type: cell-based; conditions: Homo sapiens; MDA-MB-468 (TNBC), 72-hour treatment
Procedure: as §3, §4

MCF7 = test: In vitro cell proliferation assay (SRB assay); assay type: cell-based; conditions: Homo sapiens; MCF7 (Non-TNBC), 72-hour treatment
Procedure: as §3, §4

BT-549 [5] = test: In vitro cell proliferation assay (SRB assay); assay type: cell-based; conditions: Homo sapiens; BT-549 (TNBC), 72-hour treatment
Procedure: as §3, §4

[6] = system: non-TNBC cell lines (MCF7, ZR-75-1, SK-BR-3 and MDA-MB-453); test: In vitro cell proliferation assay (SRB assay), four non-TNBC lines together; assay type: cell-based, human
Procedure: as §3, §4

four non-TNBC cell lines = test: Flow-cytometric analysis of apoptosis (Annexin V/PI); assay type: cell-based, human; conditions: same treatment, 24 hours
Procedure: (§5) Four Non-TNBC cell lines and four TNBC cell lines as mentioned above were treated with chelerythrine (CHE, 5 μM) for 24 hours. […] Reprehensive pictures are shown (400×). […] FIGS. 3C, 3D and 3E show the representative contour diagrams of FITC Annexin V/PI flow cytometry of cells. Fractions of apoptotic cells were quantified. Average values are calculated from three independent experiments (n=3). […] Apoptosis was analyzed by flow cytometry with Annexin V/PI staining. Representative contour diagrams and quantified data are shown. Average values are calculated from three independent experiments (n=3). Data is shown as mean±SD.
(§6) Cellular apoptosis was analyzed with BD Annexin V: Fitc Apoptosis Detection Kit I (BD Bioscience) by flow cytometry. Briefly cells were plated in 6-well plates (100,000˜400,000 cells/well) and treated with chelerythrine. At the indicated time point, cells were harvested, washed twice with cold PBS, and resuspended in 1X Binding Buffer at a concentration of 1,000,000 cells/ml. 100 μl cells were transferred to 1.5 ml conical tube and 5 μl FITC Annexin V and 5 μl propidium iodide were added. The mixture was gently vortexed and incubated at room temperature for 15 minutes in the dark, followed by adding 400 μl 1x Binding Buffer to each tube. Cells were filtered and analyzed by flow cytometry (BD Bioscience) within 1 hour. Total apoptotic cells (FITC Annexin V positive) were counted.

MDA-MB-231 [7] = test: as above; assay type: cell-based, human; conditions: MDA-MB-231, 24 hours, chelerythrine 5 μM (FIG. 3)
Procedure: as §5, §6

HCC1937 [8] = test: as above; assay type: cell-based, human; conditions: HCC1937, 24 hours, chelerythrine 5 μM (FIG. 3)
Procedure: as §5, §6

MDA-MB-468 [9] = test: as above; assay type: cell-based, human; conditions: MDA-MB-468, 24 hours, chelerythrine 5 μM (FIG. 3)
Procedure: as §5, §6

T-549 = test: as above; assay type: cell-based, human; conditions: T-549 (so in the source), 24 hours, chelerythrine 5 μM (FIG. 3)
Procedure: as §5, §6

MDA-MB-231 [10] = test: Flow-cytometric analysis of cell cycle; assay type: cell-based, human; conditions: MDA-MB-231, chelerythrine 5 mM (so in the source), 24 hours
Procedure: as §1, §2

HCC1937 [11] = test: Flow-cytometric analysis of cell cycle; assay type: cell-based, human; conditions: HCC1937, chelerythrine 5 mM (so in the source), 24 hours; 45.1% without treatment
Procedure: as §1, §2

MDA-MB-468 [12] = test: Flow-cytometric analysis of cell cycle; assay type: cell-based, human; conditions: MDA-MB-468, chelerythrine 5 mM (so in the source), 24 hours
Procedure: as §1, §2

non-TNBC cells [13] = test: Flow-cytometric analysis of cell cycle; assay type: cell-based, human; conditions: chelerythrine 5 mM (so in the source), 24 hours
Procedure: as §1, §2

BT-549 [14] = test: Flow-cytometric analysis of cell cycle; assay type: cell-based, human; conditions: BT-549, chelerythrine 5 mM (so in the source), 24 hours
Procedure: as §1, §2

non-TNBC cells [15] = test: Assessment of cell morphological changes (Hoechst 33258 staining); assay type: cell-based, human; conditions: 24 hours
Procedure: as §5
(§7) Cells were plated in 12-well plates (80,000-300,000 cells/well) and then treated with […] chelerythrine for 24 hours. After incubation, cells were collected, washed with PBS and stained with Hoechst 33258 (11.1 mg/ml) in buffered formalin solution containing 5.6% NP-40. Living and apoptotic cells were visualized through DAPI filter of fluorescence inverted microscope (Leica DM2500 Fluorescence Microscope) at ×400 magnification.

TNBC cells [16] = test: as above; assay type: cell-based, human; conditions: 24 hours
Procedure: as §5, §7

TNBC cell lines = test: Western blotting of cleaved PARP (cPARP); assay type: cell-based, human; conditions: TNBC compared with non-TNBC cell lines, after chelerythrine treatment
Procedure: as §5
Protein samples were prepared by adding RIPA buffer with protease inhibitor cocktail (Roche) to cells and diluted in SDS-PAGE protein sample buffer. Samples were heated for 5 minutes at 95° C. before fractionation on SDS-polyacrylamide gels. The proteins were then transferred to Immobilon P (Millipore) and incubated with primary antibodies overnight at 4° C. The membranes were then washed with TBST and incubated with the appropriate horseradish peroxidase-conjugated secondary antibodies at room temperature. Proteins were visualized with SuperSignal West Dura Extended Duration Substrate or SuperSignal West Pico Chemiluminescent Substrate (Thermo Scientific).

non-TNBC cells [17] = test: Colony formation assay; assay type: cell-based, human; conditions: treatment for 48 hours, chelerythrine 5 μM (FIG. 1C)
Procedure: (§8) Four non-triple-negative breast cancer (Non-TNBC) cell lines (MCF7, ZR-75-1, SK-BR-3 and MDA-MB-453) and four triple-negative breast cancer (TNBC) cell lines (MDA-MB-231, BT549, HCC1937 and MDA-MB-468) were used to determine the growth inhibition effect of chelerythrine. […] The cell number at each chelerythrine concentration is represented as a percentage of control (treatment without chelerythrine). Average values are calculated from three independent experiments performed in duplicate (n=3). […] The cell number at each time point is represented as a percentage of control (treatment without chelerythrine). Average values are calculated from three independent experiments performed in duplicate (n=3). […] Representative colony formation assay plates are shown, which are quantified by counting colony number (n=4). Data is shown as mean±SD. […] Cells were then washed with PBS, plated in drug-free medium in 6-well plates at densities of 2,000 cells/well and incubated for 7-10 days in the absence of drug. Colonies were stained with 0.2% (w/v) crystal violet in buffered formalin for 10 minutes. The number of colonies was counted.

TNBC cells [18] = test: Colony formation assay; assay type: cell-based, human; conditions: chelerythrine 5 μM (FIG. 1C)
Procedure: as §8

COc1ccc2c(c[n+](C)c3c4cc5c(cc4ccc23)OCO5)c1OC [chelerythrine]
nuclei with sub-G0/G1 DNA content characteristic of apoptosis (all TNBC cell lines): substantial proportion | IC50 (MDA-MB-453; Homo sapiens, MDA-MB-453 (Non-TNBC), 72-hour treatment): > 10 µM | inhibitory effect at the highest concentration tested (MDA-MB-453; MDA-MB-453, highest concentration tested, 72 hours): did not show any inhibitory effect | IC50 (ZR-75-1; Homo sapiens, ZR-75-1 (Non-TNBC), 72-hour treatment): > 10 µM | inhibitory effect at the highest concentration tested (ZR-75-1; ZR-75-1, highest concentration tested (so in the source), 72 hours): did not show any inhibitory effect | cell growth ([1]; 24 hour): significant reduction of cell growth | cell growth ([1]; 72 hour): almost died out | IC50 ([1]; Homo sapiens, range over MDA-MB-231, BT-549, HCC1937 and MDA-MB-468, 72 hours, read-out: IC50 values, growth of TNBC cell lines): 2.6 to 4.2 µM | IC50 (MDA-MB-231 [2]): 3 µM | IC50 (SK-BR-3): > 10 µM | IC50 (HCC1937 [3]): 3.6 µM | IC50 (MDA-MB-468 [4]): 4.2 µM | IC50 (MCF7): > 10 µM | IC50 (BT-549 [5]): 2.6 µM | inhibition of cell growth ([6]; 5 mM (so in the source) chelerythrine, each time point, versus TNBC lines): much less inhibition of cell growth | IC50 ([6]; Homo sapiens, 72 hours, read-out: IC50 values of all of the four non-TNBC cell lines): > 10 µM | apoptosis induction / viability (four non-TNBC cell lines): remained viable | mean percentages of apoptotic cells (MDA-MB-231 [7]): 67.8% | mean percentages of apoptotic cells (HCC1937 [8]): 22.2% | mean percentages of apoptotic cells (MDA-MB-468 [9]): 35.3% | mean percentages of apoptotic cells (T-549): 51.0% | cell cycle progression (MDA-MB-231 [10]): no obvious changes | percentage of cells in G0/G1 phase (HCC1937 [11]): 52.9% | cell cycle arrest (MDA-MB-468 [12]): marked cell cycle arrest at G2/M phase | cell cycle distribution (non-TNBC cells [13]): basically unchanged | cell cycle progression (BT-549 [14]): no obvious changes | apoptotic morphological changes (non-TNBC cells [15]): not in non-TNBC cells | apoptotic morphological changes (TNBC cells [16]): caused chromatin condensation and nuclear fragmentation | cleaved nuclear poly (ADP-ribose) polymerase (cPARP), marker of apoptosis (TNBC cell lines): detection of the cleaved nuclear poly (ADP-ribose) polymerase | colony formation ability (non-TNBC cells [17]): reserved largely of their colony formation ability | colony formation ability (TNBC cells [18]; treatment for 3 hours): dramatically decreased | Colony formation (TNBC cells [18]; treatment for 6 hours): almost no cells grew into colonies
